Read-outs that look alike come from different tables or passages of the source.
How the values were obtained:
[1] = target: T1, ovine COX-1 (Ovis aries, UniProt P05979); assay: IC50 determinations using purified enzymes (TLC assay), COX-1; type: biochemical; conditions: assayed against purified enzymes
T1 construct: can be purified from ovine seminal vesicles by standard procedures; from tissue; host or cells: ovine seminal vesicles
T1 sequence (P05979 25-600): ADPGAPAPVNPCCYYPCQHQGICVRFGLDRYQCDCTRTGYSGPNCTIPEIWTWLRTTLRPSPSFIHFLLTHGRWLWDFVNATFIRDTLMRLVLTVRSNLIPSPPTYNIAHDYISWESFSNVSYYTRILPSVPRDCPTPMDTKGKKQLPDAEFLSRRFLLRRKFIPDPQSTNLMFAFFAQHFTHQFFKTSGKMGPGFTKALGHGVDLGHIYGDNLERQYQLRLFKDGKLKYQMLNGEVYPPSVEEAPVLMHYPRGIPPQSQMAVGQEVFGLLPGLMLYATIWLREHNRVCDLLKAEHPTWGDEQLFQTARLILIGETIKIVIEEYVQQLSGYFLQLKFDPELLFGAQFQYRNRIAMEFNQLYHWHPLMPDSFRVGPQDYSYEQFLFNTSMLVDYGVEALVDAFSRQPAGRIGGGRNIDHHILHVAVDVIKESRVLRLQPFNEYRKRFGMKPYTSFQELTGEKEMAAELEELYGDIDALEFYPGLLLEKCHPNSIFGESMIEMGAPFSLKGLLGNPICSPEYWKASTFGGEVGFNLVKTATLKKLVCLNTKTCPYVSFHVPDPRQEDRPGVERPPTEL
Source text: (§1) Those skilled in the art will appreciate that an evaluation of the selectivity and efficacy of binding of the NSAID derivative to the COX-2 enzyme, e.g., after the derivative is synthesized, can be desirable. […] One example of an in vitro screening method takes advantage of the fact that both human and murine recombinant COX-2 can be expressed and isolated in pure form from an Sf9 cell expression system. […] Alternatively, membrane preparations from outdated human platelets can provide a source of human COX-1. […] The reaction is stopped by the addition of ethanol/methanol/1 M citrate, pH 4.0 (30:4:1). The extracted products are separated by thin layer chromatography (TLC), which allows quantitation of total product formation as well as assessment of product distribution. This assay is useful to define IC50 values for inhibition of either enzyme, and to determine time-dependency of inhibition. It also provides information concerning changes in products formed as a result of inhibition.
(§2) Reactions were terminated by solvent extraction in Et2O/CH3OH/1 M citrate, pH 4.0 (30:4:1). The phases were separated by centrifugation at 2000 g for 5 minutes and the organic phase was spotted on a 20×20 cm TLC plate (Lieselgel 60, EMD Chemicals, Inc., Gibbstown, N.J., United States of America). The plate was developed in EtOAc/CH2Cl2/glacial AcOH (75:25:1) at 4° C. Radiolabeled prostanoid products were quantitatively determined with a radioactivity scanner available from Bioscan, Inc. (Washington, D.C., United States of America). The percentage of total products observed at different concentrations of the presently disclosed compositions was divided by the percentage of products observed for protein samples preincubated for the same amount of time with DMSO.

[2] = target: T2, COX-1 (Mus musculus, UniProt P22437); assay: Macrophage assay (RAW264.7), COX-1; type: cell-based, murine; conditions: Table 3; macrophage assay
T2 sequence (P22437 1-602): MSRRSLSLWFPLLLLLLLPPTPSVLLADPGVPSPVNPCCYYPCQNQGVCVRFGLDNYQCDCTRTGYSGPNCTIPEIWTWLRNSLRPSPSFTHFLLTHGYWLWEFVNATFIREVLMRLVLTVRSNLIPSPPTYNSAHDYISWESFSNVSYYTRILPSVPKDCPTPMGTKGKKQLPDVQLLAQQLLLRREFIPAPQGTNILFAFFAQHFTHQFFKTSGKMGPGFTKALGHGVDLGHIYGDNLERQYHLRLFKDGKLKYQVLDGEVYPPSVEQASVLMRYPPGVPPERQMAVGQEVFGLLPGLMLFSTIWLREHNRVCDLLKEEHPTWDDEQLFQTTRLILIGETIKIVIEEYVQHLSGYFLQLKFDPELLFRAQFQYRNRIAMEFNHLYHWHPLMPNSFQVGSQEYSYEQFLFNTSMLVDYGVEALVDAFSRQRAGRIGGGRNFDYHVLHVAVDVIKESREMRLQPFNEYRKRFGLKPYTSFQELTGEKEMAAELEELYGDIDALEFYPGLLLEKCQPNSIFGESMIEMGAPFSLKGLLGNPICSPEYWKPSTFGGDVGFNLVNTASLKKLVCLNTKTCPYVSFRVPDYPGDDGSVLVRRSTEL
Source text: Thus, NSAID derivatives that are identified as potentially useful in the methods described herein can be further tested using, for example, the RAW264.7 murine macrophage cell line. These cells are readily available (for example, from the American Type Culture Collection (ATCC), Manassas, Va., United States of America) and are easily cultured in large numbers. They normally express low levels of COX-1 and very low to undetectable levels of COX-2. Upon exposure to bacterial lipopolysaccharide (LPS), however, COX-2 levels increase dramatically over the ensuing 24 hour period, and the cells produce PGD2 and PGE2 from endogenous arachidonic acid stores (generally, ˜1 nmol/10^7 cells total PG formation). After LPS exposure, the addition of exogenous arachidonic acid results in the formation of additional PGD2 and PGE2 as a result of metabolism by the newly synthesized COX-2.
This system provides a number of approaches for testing the inhibitory potency of COX-2-selective ligands (e.g., inhibitors). In general, following LPS activation, cells can be treated for 30 minutes with the desired concentrations of candidate derivative(s) in DMSO. ^14C-arachidonic acid can be added, and the cells can be incubated for 15 minutes at 37° C. Product formation can be assessed following extraction and TLC separation of the culture medium. Alternatively, the effects of candidate derivatives on PG synthesis from endogenous arachidonic acid can be assessed by incubating cells with desired concentrations of candidate derivatives 30 minutes prior to LPS exposure. Following a 24-hour incubation, medium can be collected and extracted, and the amount of PGD2 and/or PGE2 can be assayed by gas chromatography-mass spectrometry, liquid chromatography-mass spectrometry, or ELISA.

[3] = Fluorescence in buffer; type: physicochemical; conditions: for Fluor. λem: emission; for Fluor. λex: excitation
[4] = target: T3, COX-2 (Homo sapiens, UniProt P35354); assay: IC50 determinations using purified enzymes (TLC assay), COX-2; type: biochemical; design: made in house; host or cells: Sf9 insect cells; conditions: assayed against purified enzymes, read-out: IC50 COX-2
T3 sequence (P35354 18-604): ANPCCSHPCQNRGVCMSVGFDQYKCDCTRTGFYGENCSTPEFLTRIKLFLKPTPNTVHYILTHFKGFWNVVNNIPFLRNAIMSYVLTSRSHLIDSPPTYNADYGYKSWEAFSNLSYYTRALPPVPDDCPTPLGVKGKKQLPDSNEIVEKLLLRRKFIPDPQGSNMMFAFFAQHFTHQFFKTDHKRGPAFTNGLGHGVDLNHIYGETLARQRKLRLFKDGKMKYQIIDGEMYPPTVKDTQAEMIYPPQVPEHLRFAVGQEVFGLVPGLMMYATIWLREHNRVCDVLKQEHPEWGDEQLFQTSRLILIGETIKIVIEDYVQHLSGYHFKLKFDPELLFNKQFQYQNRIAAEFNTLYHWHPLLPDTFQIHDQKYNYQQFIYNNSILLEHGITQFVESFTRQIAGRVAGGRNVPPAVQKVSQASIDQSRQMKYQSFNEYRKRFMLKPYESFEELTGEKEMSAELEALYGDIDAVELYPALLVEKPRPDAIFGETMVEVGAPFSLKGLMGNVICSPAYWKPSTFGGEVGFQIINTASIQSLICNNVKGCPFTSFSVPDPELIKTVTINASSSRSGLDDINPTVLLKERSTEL
Source text: as §1, §2

| SMILES | IC50 ([1]; Table 3) [µM] | IC50 [2] [µM] | Fluor. λem [3] [nm] | Fluor. λex [3] [nm] | IC50 ([4]; Table 3) [µM] | IC50 ([1]; Table 2) [µM] | IC50 ([4]; Table 2) [µM] |
| --- | --- | --- | --- | --- | --- | --- | --- |
| COc1ccc2c(c1)c(CC(=O)NCCNC(=O)c1cc3ccccc3oc1=O)c(C)n2C(=O)c1ccc(Cl)cc1 [Compound 27cc, N-{2-(Coumarin-3-carboxylamido)ethyl}-2-{1-(4-chlorobenzoyl)-5-methoxy-2-methyl-1H-indol-3-yl}acetamide] | > 25 | > 25 | 405 | 340 | 0.789 | – | – |
| CCN(CC)c1ccc2c(-c3ccc(S(=O)(=O)NCCOCCOCCOCCOCCC(=O)NCCCCNC(=O)Cc4c(C)n(C(=O)c5ccc(Cl)cc5)c5ccc(OC)cc45)cc3S(=O)(=O)[O-])c3ccc(=[N+](CC)CC)cc-3oc2c1 [Compound 27iii, 5-(N-(23-(1-(4-chlorobenoyl)-5-methoxy-2-methyl-1H-indol-3-yl)-15,22-dioxo-3,6,9,12-tetraoxa-16,21-diazatricosyl)sulfamoyl)-2-(6-(diethylamino)-3-(diethyliminio)-3H-xanthen-9-yl)benzenesulfonate] | > 25 | > 5 | – | 571 | 0.16 | – | – |
| COc1ccc2c(c1)c(CC(=O)NCCCNS(=O)(=O)c1cccc3c(N(C)C)cccc13)c(C)n2C(=O)c1ccc(Cl)cc1 [Compound 27y] | > 25 | > 1 | 497 | 343 | 0.075 | – | – |
| COc1ccc2c(c1)c(CC(=O)NCCCCNS(=O)(=O)c1cccc3c(N(C)C)cccc13)c(C)n2C(=O)c1ccc(Cl)cc1 [Compound 27z] | > 25 | > 1 | 504 | 324 | 0.067 | – | – |
| COc1ccc2c(c1)c(CC(=O)NCCCCCNC(=O)c1ccc(C(=O)[O-])c(C3=c4cc5c6c(c4Oc4c3cc3c7c4CCCN7CCC3)CCC[N+]=6CCC5)c1)c(C)n2C(=O)c1ccc(Cl)cc1 [Compound 27zz] | > 25 | – | – | – | > 25 | – | – |
| COC(=O)c1cc(-c2ccc(C)cc2)n(-c2ccc(S(=O)(=O)N(C)C)cc2)n1 [Compound 31] | – | – | – | – | – | > 25 | > 25 |
| Cc1ccc(C(=O)N2CCN(C(=O)c3ccc(C4=c5cc6c7c(c5Oc5c4cc4c8c5CCCN8CCC4)CCC[N+]=7CCC6)c(C(=O)[O-])c3)CC2)cc1 [Compound 32] | > 25 | – | – | – | > 25 | – | – |

Second part, the molecule after the results:

| IC50 ([1]; Table 3) [µM] | IC50 [2] [µM] | Fluor. λem [3] [nm] | Fluor. λex [3] [nm] | IC50 ([4]; Table 3) [µM] | IC50 ([1]; Table 2) [µM] | IC50 ([4]; Table 2) [µM] | SMILES |
| --- | --- | --- | --- | --- | --- | --- | --- |
| > 25 | – | – | – | > 25 | – | – | COc1ccc2c(c1)c(CCNC(=O)c1cc3ccccc3oc1=O)c(C)n2Cc1ccc(Br)cc1 [Compound 28b] |
| > 25 | – | – | – | > 25 | – | – | COc1ccc2c(c1)c(CCNC(=O)Cc1ccc(Nc3ccc([N+](=O)[O-])c4nonc34)cc1)c(C)n2Cc1ccc(Br)cc1 [Compound 28c] |
| > 25 | – | – | – | > 25 | – | – | COc1ccc2c(c1)c(CCNC(=O)c1ccc(C(=O)[O-])c(C3=c4cc5c6c(c4Oc4c3cc3c7c4CCCN7CCC3)CCC[N+]=6CCC5)c1)c(C)n2Cc1ccc(Br)cc1 [Compound 28e] |
| – | – | – | – | – | > 25 | 2.8 | COC(=O)c1cc(-c2ccc(C)cc2)n(-c2ccc(S(C)(=O)=O)cc2)n1 [Compound 29b] |
| – | – | – | – | – | > 25 | > 25 | COSc1ccc(-n2nc(C(=O)OC)cc2-c2ccc(C)cc2)cc1 [Compound 29c] |
| – | – | – | – | – | > 25 | > 25 | Cc1ccc(-c2cc(C(=O)O)nn2-c2ccc(S(C)(=O)=O)cc2)cc1 [Compound 29d] |
| – | – | – | – | – | > 25 | > 25 | Cc1ccc(-c2cc(CCC(=O)NCCN)nn2-c2ccc(S(C)(=O)=O)cc2)cc1 [Compound 29f] |
| > 25 | – | – | – | > 25 | – | – | CC[N+](CC)=c1ccc2nc3c(cc(NC(=O)CCc4cc(-c5ccc(C)cc5)n(-c5ccc(S(C)(=O)=O)cc5)n4)c4ccccc43)oc-2c1 [Compound 29g] |
| > 25 | – | – | – | > 25 | – | – | Cc1ccc(-c2cc(CCC(=O)NCCNC(=O)c3ccc(C(=O)[O-])c(C4=c5cc6c7c(c5Oc5c4cc4c8c5CCCN8CCC4)CCC[N+]=7CCC6)c3)nn2-c2ccc(S(C)(=O)=O)cc2)cc1 [Compound 29h] |
| – | – | – | – | – | > 25 | > 25 | Cc1ccc(-c2cc(C(=O)O)nn2-c2ccc(S(N)(=O)=O)cc2)cc1 [Compound 30d] |
| > 25 | – | – | – | > 25 | – | – | Cc1ccc(-c2cc(CCC(=O)NCCNC(=O)c3ccc(C(=O)[O-])c(C4=c5cc6c7c(c5Oc5c4cc4c8c5CCCN8CCC4)CCC[N+]=7CCC6)c3)nn2-c2ccc(S(N)(=O)=O)cc2)cc1 [Compound 30e] |
| – | > 5 | – | – | ≥ 25 | – | – | CCN(CC)c1ccc2c(-c3ccc(S(=O)(=O)NCCOCCOCCOCCOCCC(=O)NCCNC(=O)CCc4cc(-c5ccc(C)cc5)n(-c5ccc(S(N)(=O)=O)cc5)n4)cc3S(=O)(=O)[O-])c3ccc(=[N+](CC)CC)cc-3oc2c1 [Compound 30f] |
